According to patent publication US20100254965A1, “Adenosine Signaling in Diagnosis, Treatment, and Prevention of Priapism and Erectile Dysfunction” (BOARD OF REGENTS ,THE UNIVERSITY OF TEXAS SYSTEM, priority 2006, published 2010):

Legend:
[1] = test system: corpus cavernosal strips (CCS); assay: EFS-induced cAMP in CCS of ADA+ and ADA-/- mice; type: cell-based, mouse; conditions: CCS of either ADA-/- or ADA+ mice, EFS 5V 30 Hz; MRS1706 (10 nM), ZM241385 (50 nM), L-NAME (100 μM)
Procedure: FIG. 19. EFS leads to increased cAMP and cGMP production via A2BR in ADA-deficient mice. (a-b) Corpus cavernosal strips (CCS) of the ADA−/− and ADA+ mice were isolated and treated with 10 μM phenylephrine (PE) to induce precontraction. Then CCS were treated with MRS1706 (10 nM), ZM241385 (50 nM) or L-NAME (100 μM) prior to electrical field stimulation (EFS) at 5V and 30 Hz. 60 second after nerve stimulation, the CCS were quickly frozen and cellular cAMP (a) and cGMP (b) were measured by using commercial enzyme immunoassay kit (Amersham Pharmacia). N=4. Data are expressed as mean±SE. *p<0.05, ADA deficient mice versus the control; **p<0.05, CCS of ADA-deficient mice with MRS1706 and/or L-NAME treatment versus CCS of ADA-deficient mice without treatment; ***p<0.05, CCS of the control mice with MRS1706 and/or L-NAME treatment versus CCS of the control mice without treatment.
Function experiments. […] The contractility of each isolated corpus cavernosum smooth muscle cells (CCSM) strip was measured using an isometric force transducer (AD Instrument Inc., Georgia, Vt., USA). […] The contractile responses of the strips were analysed by adding 10 μM phenylephrine to the bath, and force changes were recorded in response to drug application and to electrical field stimulation. […]

CCS and CCSM = assay: Phenylephrine-induced myosin light chain (MLC) phosphorylation, western blot; type: cell-based, mouse; conditions: intact penile organ culture and CCSM, PE 10 μM, adenosine 100 μM
Procedure: FIG. 18. Adenosine stimulated both cAMP and cGMP induction in corpus cavernosal smooth muscle cells (CCSM) via A2BR activation. (a) Adenosine receptor expression profile in purified primary CCSM. CCSM were purified from adult mouse penes. […] (b) CCSM were isolated and cultured from mouse penes. The cells were switched to serum-free medium and treated with different concentrations of adenosine with or without A2BR antagonist (MRS1706-10 μM), A2AR antagonist (ZM241385-50 nM) or A2AR agonist (CGS-21680-10 μM) alone for 10 min. Then cellular extracts were collected and cAMP levels were measured using an ELISA kit. […] After 10 min treatment, the cellular extracts were collected and cAMP levels were measured by using a commercial enzyme immunoassay kit (Amersham Pharmacia). […] 10 min after treatment, cellular extracts were collected and cGMP levels were measured by using a commercial enzyme immunoassay kit (Amersham Pharmacia). Data are expressed as mean±SE. *p<0.05, adenosine treated versus the control; **p<0.05, adenosine treated with MRS1706 versus the adenosine treated; ***p<0.05, CCS of A2BR-deficient mice treated with adenosine versus the CCS of wild type mice treated with adenosine. […] After 10 min treatment, the cellular extracts were collected and cAMP levels were measured by using a commercial enzyme immunoassay kit (Amersham Pharmacia). […]

CCCn1c(=O)c2[nH]c(-c3ccc(OCC(=O)Nc4ccc(C(C)=O)cc4)cc3)nc2n(CCC)c1=O [MRS1706]
EFS-increased cAMP levels were blocked [1]: completely blocked

Nc1ncnc2c1ncn2[C@@H]1O[C@H](CO)[C@@H](O)[C@H]1O [adenosine]
PE-mediated MLC phosphorylation (CCS and CCSM): decreased PE-mediated MLC phosphorylation
